# Measured values reported in patent US20230240290A1, “USE OF (Z)-3-HEXENYL ESTERS AND METHOD FOR PROTECTING PLANTS AGAINST PESTS” (UNIVERSITAT POLITÈCNICA DE VALÈNCIA, priority 2020, published 2023).
# Columns and labels:
# Format in all cases: in vivo
# [1] = system: LOX2 (precursor of JA jasmonic acid); assay: Transcriptional response of LOX2 in Carrizo citrange plants exposed to the volatile; details: intact Carrizo citrange plants exposed 24 h; n=6
# Protocol: (§1) Two weeks after seed germination, the seedlings were individually transplanted into pots (8×8×8 cm). The plants were kept in a greenhouse with a plastic cover at approximate climatic conditions of 25±5° C., a relative humidity of 65%±5%, and a natural light photoperiod, about 14:10 h (light:dark). Carrizo citrange plants that had not received any pesticide treatment at 8 weeks of age (approximately 20 cm tall) were used. The volatile (Z)-3-hexenyl propanoate was obtained from Sigma-Aldrich (St. Louis, Mo., USA). The volatile was exposed by using a 2×2 cm piece of filter paper on which 10 μl of a solution containing the corresponding volatile at a concentration of 1:10,000 [(Z)-3-hexenyl propanoate:methanol] was impregnated as an emitting source of the corresponding volatile (Pérez-Hedo, M. et al. Biocontrol, 63: 203-213 (2018)). […]
# (§2) The methodology followed for the extraction and quantification of gene expression was described by Pérez-Hedo et al. Journal of Pest Science 3: 543-554 (2015). The primers used were forward primer: 5′-[…]-3′ (SEQ ID NO: 11) and reverse primer: 5′-[…]-3′ (SEQ ID NO: 12) for the quantification of LOX2, forward primer: 5′-[…]-3′ (SEQ ID NO: 13) and reverse primer: 5′-[…]-3′ (SEQ ID NO: 14) for PAL and forward primer: 5′-[…]-3′ (SEQ ID NO: 15) and reverse primer: 5′-[…]-3′ (SEQ ID NO: 16) for the NPR5 gene. […]
# [2] = system: PAL (salicylic acid pathway); assay: Transcriptional response of PAL in Carrizo citrange plants exposed to the volatile; details: intact Carrizo citrange plants exposed 24 h; n=6
# Protocol: as §1, §2
# [3] = system: PIN2 (marker gene for the jasmonic acid signaling pathway); assay: Semi-field release assay, transcriptional response of PIN2 in tomato plants; details: 4 weeks
# Protocol: Two different types of polymeric emitters were used to test the activation level that different emission levels of (Z)-3-hexenyl propionate can provide: 4-mL low-density (LD) polyethylene vial and 4-mL high-density (HD) polyethylene vial. The highest emission level (5 mg/day) was achieved through previous laboratory studies with LD dispensers loaded with 20 mg of the pure substance. The lowest emission level (0.01 mg/day) was provided by HD vials loaded with a 1:100 mixture of (Z)-3-hexenyl propionate and paraffinic oil (0.02:2; g:g). The emission kinetics of the emitters used during the experiments was controlled by studying weight loss (gravimetric method). […] The difference in weight recorded in each period will be the emitted quantity of the substance for each type of dispenser. To obtain the mean emission level of each dispenser, the recorded weights (y) are related to the aging time (x) using a multiple regression analysis.
# Once the mentioned emission levels have been established, 5 and 0.01 mg/day/dispenser, tomato plants were exposed to the different emission levels through an experiment under semi-field conditions in a glass greenhouse. […] Environmental conditions were monitored and recorded using a Mithra clima data logger (ver. 1.01.03, Priva nutricontrol Ibérica S.L). […]
compound,measurement,setting,value
CC/C=C\CCOC(=O)CC [(Z)-3-hexenyl propanoate],Transcriptional response of LOX2 compared to control,[1],significantly overexpressed
same,Transcriptional response of PAL compared to control,[2],significantly overexpressed
same,Transcriptional response of PIN2 (jasmonic acid pathway),"[3]; 0.01 mg/day emission, HD polyethylene vial",did not affect exposed plants
same,Transcriptional response of PIN2 (jasmonic acid pathway),"[3]; 5 mg/day emission, LD polyethylene vial",significantly activated
